# According to patent US8163713B2, “Trehalose compound and pharmaceutical comprising the compound” (Otsuka Chemical Co., Ltd., priority 2006, dated 2012):
# Target: T1, human recombinant adenosine A3 receptors (Homo sapiens, UniProt P0DMS8)
# T1 construct: host or cells: CHO-K1 (Chinese hamster ovary K1 cells)
# T1 sequence (P0DMS8 1-318): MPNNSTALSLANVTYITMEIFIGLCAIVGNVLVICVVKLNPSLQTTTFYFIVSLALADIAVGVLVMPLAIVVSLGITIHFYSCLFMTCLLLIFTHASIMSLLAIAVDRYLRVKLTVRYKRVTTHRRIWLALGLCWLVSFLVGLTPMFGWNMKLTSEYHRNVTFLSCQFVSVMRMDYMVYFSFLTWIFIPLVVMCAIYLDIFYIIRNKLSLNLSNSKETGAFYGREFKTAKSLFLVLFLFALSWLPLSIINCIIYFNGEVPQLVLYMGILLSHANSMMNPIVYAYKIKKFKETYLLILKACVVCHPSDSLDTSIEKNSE
# Assay: Test for affinity for adenosine A3 receptor ([125I]AB-MECA binding to CHO-K1 cell membranes)
# Details: for Affinity 10 μM: 10 μM trehalose compound; for Affinity 10 μM / Affinity 3 μM: 0.5 nM [125I]AB-MECA, 60 min, 25° C.; for Affinity 3 μM: 3 μM trehalose compound; for IC50: [125I]AB-MECA displacement
# Experimental: Specifically, ovarium K1 cells of a Chinese hamster (obtained from Euroscreen S. A.; hereunder referred to as “CHO-K1”) expressing human recombinant adenosine A3 receptors were cultured in a modified HEPES buffer free of Ca^2+ and Mg^2+. Subsequently, the cultured CHO-K1 was scraped and homogenized in 50 mM of ice-cooled Tris-HCl (pH 7.4). The resulting mixture was subjected to centrifugation at 48,000×g for 15 minutes to obtain a cell membrane pellet. The obtained cell membrane pellet was washed twice with another modified HEPES buffer, and then subjected again to centrifugation. The washed cell membrane pellet was suspended again in a small quantity of 50 mM Tris-HCl (pH 7.4).
# The concentration of the adenosine A3 receptor in the obtained cell membrane pellet was measured as follows. A 0.5 nM amount of [^125I] […] Thereafter, 50 mM of ice-cooled Tris-HCl (pH 7.4) was added thereto to halt the reaction, and then the cell membrane pellet was filtrated out using a glass fiber filter. The filtered cell membrane pellet was washed 3 times with an ice-cooled buffer so as to remove excessive ligands. The radioactivity in the resulting cell membrane pellet on a filter was measured using a scintillation counter (Type 1470 Automatic Counter; PerkinElmer, Inc.).
# Separately, in order to measure nonspecific bindings of [^125I] AB-MECA other than to an adenosine A3 receptor, 1 μM of […] (a selective radioagonist of A3 receptor N^6-(3-iodobenzyl)-5′-(N-[…]) adenosine) was further added to the obtained suspension of the cell membrane pellet, and the same measurement was carried out as in the aforesaid binding experiment. The average specific binding value of [^125I] AB-MECA to the adenosine A3 receptor was calculated based on the results obtained in the above experiment.
# Further, in a Comparative Example, the same measurement was carried out with respect to the compounds taught in Non-Patent Document 1 and Non-Patent Document 2 (in the chemical formula of Table 1, R^1=R^3=octyl, R^2=R^4=heptyl, X=X′=OH, and Y=Y′═O).
structure (smiles),measurement,setting,value
"CCCCCCCCC(O)C(CCCCCCC)C(=O)OCC1O[C@H](O[C@@H]2OC(COC(=O)C(CCCCCCC)C(O)CCCCCCCC)[C@@H](O)C(O)C2O)C(O)C(O)[C@@H]1O (some centres unmarked) [Comparative Example, reference compound]",Affinity 10 μM,,29
"CCCCCC[C@@H](O)[C@@H](CCCCC)C(=O)OC[C@H]1O[C@H](O[C@H]2O[C@H](COC(=O)[C@H](CCCCC)[C@H](O)CCCCCC)[C@@H](O)[C@H](O)[C@H]2O)[C@H](O)[C@@H](O)[C@@H]1O [Production Example F-1, 6,6′-bis-O-[(2R,3R)-3-hydroxy-2-pentylnonanoyl]-α,α′-trehalose]",Affinity 3 μM,,56
same,Affinity 10 μM,,97
same,IC50,,2.61 µM
"CCCCCC[C@H](O)[C@H](CCCCC)C(=O)OC[C@H]1O[C@H](O[C@H]2O[C@H](COC(=O)[C@@H](CCCCC)[C@@H](O)CCCCCC)[C@@H](O)[C@H](O)[C@H]2O)[C@H](O)[C@@H](O)[C@@H]1O [Production Example F-2, 6,6′-bis-O-[(2S,3S)-3-hydroxy-2-pentylnonanoyl]-α,α′-trehalose]",Affinity 3 μM,,57
same,Affinity 10 μM,,86
"CCCCCC[C@H](O)[C@@H](CCCCC)C(=O)OC[C@H]1O[C@H](O[C@H]2O[C@H](COC(=O)[C@H](CCCCC)[C@@H](O)CCCCCC)[C@@H](O)[C@H](O)[C@H]2O)[C@H](O)[C@@H](O)[C@@H]1O [Production Example F-3, 6,6′-bis-O-[(2R,3S)-3-hydroxy-2-pentylnonanoyl]-α,α′-trehalose]",Affinity 3 μM,,59
same,Affinity 10 μM,,100
"CCCCCC[C@@H](O)[C@H](CCCCC)C(=O)OC[C@H]1O[C@H](O[C@H]2O[C@H](COC(=O)[C@@H](CCCCC)[C@H](O)CCCCCC)[C@@H](O)[C@H](O)[C@H]2O)[C@H](O)[C@@H](O)[C@@H]1O [Production Example F-4, 6,6′-bis-O-[(2S,3R)-3-hydroxy-2-pentylnonanoyl]-α,α′-trehalose]",Affinity 3 μM,,32
same,Affinity 10 μM,,91
"CCCCCCCC(O)C(CCCCCC)C(=O)OCC1OC(OC2OC(COC(=O)C(CCCCCC)C(O)CCCCCCC)C(O)C(O)C2O)C(O)C(O)C1O [Production Example F-5, 6,6′-bis-O-[(2R,3R)-2-hexyl-3-hydroxydecanoyl]-α,α′-trehalose]",Affinity 10 μM,listed as F-5,83
"CCCCCCCC(O)C(CCCCCC)C(=O)OCC1OC(OC2OC(COC(=O)C(CCCCCC)C(O)CCCCCCC)C(O)C(O)C2O)C(O)C(O)C1O [Production Example F-6, 6,6′-bis-O-[(2S,3S)-2-hexyl-3-hydroxydecanoyl]-α,α′-trehalose]",Affinity 10 μM,listed as F-6,59
"CCCCCCC(OC)C(CCCCC)C(=O)OCC1OC(OC2OC(COC(=O)C(CCCCC)C(CCCCCC)OC)C(O)C(O)C2O)C(O)C(O)C1O [Production Example F-7, 6,6′-bis-O-[(2R,3R)-3-methoxy-2-pentylnonanoyl]-α,α′-trehalose]",Affinity 3 μM,,84
same,Affinity 10 μM,,96
"CCCCC(CCCC)C(=O)OC[C@H]1O[C@H](O[C@H]2O[C@H](COC(=O)C(CCCC)CCCC)[C@@H](O)[C@H](O)[C@H]2O)[C@H](O)[C@@H](O)[C@@H]1O [Production Example F-8, 6,6′-bis-O-(2-butylhexanoyl)-α,α′-trehalose]",Affinity 3 μM,,14
same,Affinity 10 μM,,72
"CCCCCC(CCCCC)C(=O)OC[C@H]1O[C@H](O[C@H]2O[C@H](COC(=O)C(CCCCC)CCCCC)[C@@H](O)[C@H](O)[C@H]2O)[C@H](O)[C@@H](O)[C@@H]1O [Production Example F-9, 6,6′-bis-O-(2-pentylheptanoyl)-α,α′-trehalose]",Affinity 3 μM,,97
same,Affinity 10 μM,,99
same,IC50,,0.459 µM
"CCCCCCC(CCCCCC)C(=O)OCC1OC(OC2OC(COC(=O)C(CCCCCC)CCCCCC)C(O)C(O)C2O)C(O)C(O)C1O (stereo not drawn) [Production Example F-10, 6,6′-bis-O-(2-hexyloctanoyl)-α,α′-trehalose]",Affinity 3 μM,,65
same,Affinity 10 μM,,66
"CCCCCCCC(CCCCC)C(=O)OC[C@H]1O[C@H](O[C@H]2O[C@H](COC(=O)C(CCCCC)CCCCCCC)[C@@H](O)[C@H](O)[C@H]2O)[C@H](O)[C@@H](O)[C@@H]1O (stereo partly drawn) [Production Example F-11, 6,6′-bis-O-(2-pentylnonanoyl)-α,α′-trehalose]",Affinity 3 μM,,74
same,Affinity 10 μM,,62
"CCCCC[C@@H](O)[C@@H](CCCC)C(=O)OC[C@H]1O[C@H](O[C@H]2O[C@H](COC(=O)[C@@H](CCCC)[C@@H](O)CCCCC)[C@@H](O)[C@H](O)[C@H]2O)[C@H](O)[C@@H](O)[C@@H]1O [Production Example F-12, 6-O-[(2R,3R)-2-butyl-3-hydroxyoctanoyl]-6′-O-[(2S,3S)-2-butyl-3-hydroxyoctanoyl]-α,α′-trehalose]",Affinity 10 μM,,48
"CCCCCC[C@@H](O)[C@@H](CCCCC)C(=O)OC[C@H]1O[C@H](O[C@H]2O[C@H](COC(=O)[C@@H](CCCCC)[C@@H](O)CCCCCC)[C@@H](O)[C@H](O)[C@H]2O)[C@H](O)[C@@H](O)[C@@H]1O [Production Example F-13, 6-O-[(2R,3R)-3-hydroxy-2-pentylnonanoyl]-6′-O-[(2S,3S)-3-hydroxy-2-pentylnonanoyl]-α,α′-trehalose]",Affinity 3 μM,,54
same,Affinity 10 μM,,97
same,IC50,,2.75 µM
"CCCCCCC[C@@H](O)[C@@H](CCCCCC)C(=O)OC[C@H]1O[C@H](O[C@H]2O[C@H](COC(=O)[C@@H](CCCCCC)[C@@H](O)CCCCCCC)[C@@H](O)[C@H](O)[C@H]2O)[C@H](O)[C@@H](O)[C@@H]1O [Production Example F-14, 6-O-[(2R,3R)-3-hydroxy-2-hexyldecanoyl]-6′-O-[(2S,3S)-3-hydroxy-2-hexyldecanoyl]-α,α′-trehalose]",Affinity 10 μM,,77
"CCCCCC[C@@H](O)[C@@H](CCCCC)C(=O)NC[C@H]1O[C@H](O[C@H]2O[C@H](CNC(=O)[C@H](CCCCC)[C@H](O)CCCCCC)[C@@H](O)[C@H](O)[C@H]2O)[C@H](O)[C@@H](O)[C@@H]1O [Production Example F-15, 6,6′-bis-N-[(2R,3R)-3-hydroxy-2-pentylnonanoylamino]-6,6′-dideoxy-α,α′-trehalose]",Affinity 3 μM,,29
same,Affinity 10 μM,,69
"CCCCCCC(OC)C(CCCCC)C(=O)NCC1OC(OC2OC(CNC(=O)C(CCCCC)C(CCCCCC)OC)C(O)C(O)C2O)C(O)C(O)C1O [Production Example F-16, 6,6′-bis-N-[(2R,3R)-3-methoxy-2-pentylnonanoylamino]-6,6′-dideoxy-α,α′-trehalose]",Affinity 3 μM,,57
same,Affinity 10 μM,,96
"CCCCCCC(CCCCCC)C(=O)NCC1OC(OC2OC(CNC(=O)C(CCCCCC)CCCCCC)C(O)C(O)C2O)C(O)C(O)C1O (stereo not drawn) [Production Example F-17, 6,6′-bis-N-(2-hexyloctanoylamino)-6,6′-dideoxy-α,α′-trehalose]",Affinity 3 μM,,22
"CCCCCCCC(CCCCC)C(=O)NCC1OC(OC2OC(CNC(=O)C(CCCCC)CCCCCCC)C(O)C(O)C2O)C(O)C(O)C1O (stereo not drawn) [Production Example F-18, 6,6′-bis-N-(2-pentylnonanoylamino)-6,6′-dideoxy-α,α′-trehalose]",Affinity 3 μM,,33
same,Affinity 10 μM,,89
